Experimental data as given in ChEMBL document CHEMBL4828774, “Novel PRMT5 Inhibitors for Treating Cancer” (ACS Med Chem Lett, 2021).

assay: Cytotoxicity against human HCT116-MTAP null cells assessed as reduction in cell viability incubated for 6 days by CellTiter-Glo luminescent assay; type: functional, cell-based; settings: 144 h

Compound	IC50 [nM]
Cc1cc2cc(C(=O)N(Cc3ccc(Br)cn3)[C@H](C)c3ncccn3)ccc2nc1N	15
Cc1cc2cc(C(=O)N(Cc3ccc(C(F)(F)F)cn3)[C@H](C)c3cccc(F)n3)ccc2nc1N	13
Cc1cc2cc(C(=O)N(Cc3ccc(C(F)(F)F)cn3)[C@@H]3CCCc4nccnc43)ccc2nc1N	12
Cc1cc2cc(C(=O)N(Cc3ccc(C(F)(F)F)cn3)[C@@H]3CCCc4cn[nH]c43)ccc2nc1N	10
Cc1cc2cc(C(=O)N(Cc3ccc(C(F)(F)F)cn3)[C@@H]3CCOc4ccc(F)nc43)ccc2nc1N	13
C[C@H](c1ncccn1)N(Cc1ccc(C(F)(F)F)nn1)C(=O)c1cnc2nc(N)c(I)cc2c1	15
